Biological target: T1, NL20 human bronchial epithelial cells expressing human Z-AAT (Homo sapiens, UniProt P01009, E366K)
T1 construct: expressed in transfected cells; host or cells: NL20 human bronchial epithelial cells (NL20-SI line, doxycycline added)
Assay: AAT Function Assay (MSD Assay NL20-SI Cell Line)
Assay type: cell-based
Conditions: functionally active AAT (AAT-hNE complex) in supernatant of NL20 cells expressing human Z-AAT; read-out: NL20 Func. (EC50)
Outline: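 NL20 cells expressing Z-AAT, seeded 16,000 cells/well, received compound with doxycycline (0.1 μM final) and were incubated overnight at 37° C. Supernatants, diluted 45-fold in total, reacted with excess human neutrophil elastase; AAT-elastase complex captured on anti-AAT plates, detected with Sulfo-tagged anti-elastase by MSD electrochemiluminescence, and quantified against M-AAT standards (0.156-320 ng/mL).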

T1 sequence (P01009 25-418 E366K): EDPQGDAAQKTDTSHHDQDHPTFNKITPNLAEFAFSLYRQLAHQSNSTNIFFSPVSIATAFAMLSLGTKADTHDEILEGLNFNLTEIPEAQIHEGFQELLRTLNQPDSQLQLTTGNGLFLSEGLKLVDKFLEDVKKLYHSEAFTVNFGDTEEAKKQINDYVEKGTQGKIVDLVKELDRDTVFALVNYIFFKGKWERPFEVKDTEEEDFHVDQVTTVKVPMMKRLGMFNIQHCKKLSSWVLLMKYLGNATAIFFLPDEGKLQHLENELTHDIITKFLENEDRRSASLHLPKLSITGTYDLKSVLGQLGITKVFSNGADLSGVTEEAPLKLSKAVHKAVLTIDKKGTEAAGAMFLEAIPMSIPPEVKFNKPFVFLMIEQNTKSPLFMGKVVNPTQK

SMILES | EC50 [µM]
Cc1cc(-n2c(C(C)C)c(C(=O)N3CCN(C)CC3)c3cc4[nH]ncc4cc32)ccc1F [Compound 5, [5-(4-fluoro-3-methyl-phenyl)-6-isopropyl-1H-pyrrolo[2,3-f]indazol-7-yl]-(4-methylpiperazin-1-yl)methanone] | > 3
Cc1cc(-n2c(C(C)C)c(C3CC4(CC(C(=O)O)C4)C3)c3cc4[nH]nc(C)c4cc32)ccc1F (single isomer, unassigned) [Compound 58, 6-[5-(4-fluoro-3-methyl-phenyl)-6-isopropyl-3-methyl-1H-pyrrolo[2,3-f]indazol-7-yl]spiro[3.3]heptane-2-carboxylic acid] | 1.16 to 3
O=C(O)C1CC2(C1)CC(c1c(C3CCOCC3)n(-c3ccc(F)c(F)c3)c3cc4cn[nH]c4cc13)C2 (single isomer, unassigned) [Compound 67] | < 1.16
Cc1cc(-n2c(C3CCOCC3)c(CCC(=O)O)c3cc4[nH]ncc4cc32)ccc1F [Compound 86] | > 3
Cc1cc(-n2c(C(C)C)c(CCC(=O)O)c3c(C)c4[nH]ncc4cc32)ccc1F [Compound 51, 3-[5-(4-fluoro-3-methyl-phenyl)-6-isopropyl-8-methyl-1H-pyrrolo[2,3-f]indazol-7-yl]propanoic acid] | 1.16 to 3
Fc1ccc(-n2c(C3CCOCC3)cc3cc4[nH]ncc4cc32)cc1 [Compound 60, 5-(4-fluorophenyl)-6-tetrahydropyran-4-yl-1H-pyrrolo[2,3-f]indazole] | > 3
[H][C@]1(C(=O)O)C[C@]2(C1)C[C@]([H])(c1c(C3CCOCC3)n(-c3ccc(F)cc3)c3cc4cn[nH]c4cc31)C2 (single isomer, unassigned) [Compound 110] | 1.16 to 3
O=C(O)[C@H]1C[C@H](c2c(C3CCOCC3)n(-c3ccc(F)c(F)c3)c3cc4cn[nH]c4cc32)C1 [Compound 66] | 1.16 to 3
[H][C@]1(C(=O)O)C[C@]2(C1)C[C@@]([H])(c1c(C3CCOCC3)n(-c3ccc(F)cc3)c3cc4cn[nH]c4cc31)C2 (single isomer, unassigned) [Compound 109] | 1.16 to 3
O=C(O)CCc1c(C2CCOCC2)n(-c2ccc(F)c(F)c2)c2cc3cn[nH]c3cc12 [Compound 64, 3-[5-(3,4-difluorophenyl)-6-tetrahydropyran-4-yl-1H-pyrrolo[2,3-f]indazol-7-yl]propanoic Acid] | > 3
O=C(O)[C@H]1CC[C@H](c2c(C3CCOCC3)n(-c3ccc(F)c(F)c3)c3cc4cn[nH]c4cc32)CC1 [Compound 75, (1r,4r)-4-(5-(3,4-difluorophenyl)-6-(tetrahydro-2H-pyran-4-yl)-1,5-dihydropyrrolo[2,3-f]indazol-7-yl)cyclohexane-1-carboxylic Acid] | < 1.16
O=C(O)C1CC(Cc2c(C3CCOCC3)n(-c3ccc(F)c(Cl)c3)c3cc4cn[nH]c4cc23)C1 (single isomer, unassigned) [Compound 80] | < 1.16
O=C(O)[C@H]1C[C@@H](c2c(C3CCOCC3)n(-c3ccc(F)c(F)c3)c3cc4cn[nH]c4cc32)C1 [Compound 65] | > 3
CC(C)c1c(C#N)c2cc3[nH]ncc3cc2n1-c1ccc(F)cc1 [Compound 29, 5-(4-fluorophenyl)-6-isopropyl-1H-pyrrolo[2,3-f]indazole-7-carbonitrile] | < 1.16
Cc1cc(-n2c(C3CCOCC3)c(CC(C)C(=O)O)c3cc4[nH]ncc4cc32)ccc1F (racemic) [Compound 105] | 1.16 to 3
O=C(O)C1CC2(C1)CC(c1c(C3CCOCC3)n(-c3ccc(F)c(Cl)c3)c3cc4cn[nH]c4cc13)C2 (single isomer, unassigned) [Compound 77] | < 1.16
Cc1cc(-n2c(C(C)C)c(S(C)(=O)=O)c3cc4[nH]ncc4cc32)ccc1F [Compound 11, 5-(4-fluoro-3-methyl-phenyl)-6-isopropyl-7-methylsulfonyl-1H-pyrrolo[2,3-f]indazole] | 1.16 to 3
Cc1cc(-n2c(C(C)C)c(CC(C)C(=O)O)c3cc4[nH]ncc4cc32)ccc1F (racemic) [Compound 19] | < 1.16
Cc1cc(-n2c(C3CCOCC3)c(C3CC(CC(=O)O)C3)c3cc4[nH]ncc4cc32)ccc1F (mixture of isomers) [Compound 93] | 1.16 to 3
CCOC(=O)c1c(C(C)C)n(-c2ccc(F)c(C)c2)c2cc3cn[nH]c3cc12 [Compound 2, ethyl 5-(4-fluoro-3-methyl-phenyl)-6-isopropyl-1H-pyrrolo[2,3-f]indazole-7-carboxylate] | > 3

The next lines start with the values.

EC50 [µM] | SMILES
> 3 | NC(=O)CCc1c(C2CCOCC2)n(-c2ccc(F)cc2)c2cc3cn[nH]c3cc12 [Compound 166, 3-[5-(4-fluorophenyl)-6-tetrahydropyran-4-yl-1H-pyrrolo[2,3-f]indazol-7-yl]propanamide]
1.16 to 3 | O=C1CCCC(c2c(C3CCOCC3)n(-c3ccc(F)cc3)c3cc4cn[nH]c4cc23)C1 (racemic) [Compound 121, 3-[5-(4-fluorophenyl)-6-tetrahydropyran-4-yl-1H-pyrrolo[2,3-f]indazol-7-yl]cyclohexanone]
< 1.16 | Cc1c2[nH]ncc2cc2c1c(C1=CC3(C1)CC(C(=O)O)C3)c(C1CCOCC1)n2-c1ccc(F)c(F)c1 (centres unmarked) [Compound 132, 2-[5-(3,4-difluorophenyl)-8-methyl-6-tetrahydropyran-4-yl-1H-pyrrolo[2,3-f]indazol-7-yl]spiro[3.3]hept-2-ene-6-carboxylic Acid]
< 1.16 | O=C(O)C1CC2(C1)CC(c1c(C3CCOCC3)n(-c3ccc(F)cc3)c3cc4cn[nH]c4c(F)c13)C2 (single isomer, unassigned) [Compound 136, 6-[8-fluoro-5-(4-fluorophenyl)-6-tetrahydropyran-4-yl-1H-pyrrolo[2,3-f]indazol-7-yl]spiro[3.3]heptane-2-carboxylic acid]
< 1.16 | Cc1cc(-n2c(C3CCOCC3)c(C3CC4(CC(C(=O)O)C4)C3)c3cc4[nH]nc(C)c4cc32)ccc1F (single isomer, unassigned) [Compound 127, 6-[5-(4-fluoro-3-methyl-phenyl)-3-methyl-6-tetrahydropyran-4-yl-1H-pyrrolo[2,3-f]indazol-7-yl]spiro[3.3]heptane-2-carboxylic acid]
> 3 | CC1(c2c(S(C)(=O)=O)c3cc4[nH]ncc4cc3n2-c2ccc(F)cc2)COC1 [Compound 197, 5-(4-fluorophenyl)-6-(3-methyloxetan-3-yl)-7-methylsulfonyl-1H-pyrrolo[2,3-f]indazole]
1.16 to 3 | O=C(O)[C@H]1C[C@H](c2c(C3CCOCC3)n(-c3ccc(F)cc3)c3cc4cn[nH]c4cc32)C1 [Compound 113]
1.16 to 3 | C[C@@H](O)C(=O)N1CC2(CC(c3c(C4CCOCC4)n(-c4ccc(F)c(F)c4)c4cc5cn[nH]c5cc34)C2)C1 [Compound 185, (2R)-1-[6-[5-(3,4-difluorophenyl)-6-tetrahydropyran-4-yl-1H-pyrrolo[2,3-f]indazol-7-yl]-2-azaspiro[3.3]heptan-2-yl]-2-hydroxy-propan-1-one]
1.16 to 3 | Cc1cc(-n2c(C3CCOCC3)c(C3CC4(CC(C(=O)O)C4)C3)c3cc4[nH]nc(C)c4cc32)ccc1F (racemic) [Compound 126, 6-[5-(4-fluoro-3-methyl-phenyl)-3-methyl-6-tetrahydropyran-4-yl-1H-pyrrolo[2,3-f]indazol-7-yl]spiro[3.3]heptane-2-carboxylic acid]
1.16 to 3 | N#CCCc1c(C2CCOCC2)n(-c2ccc(F)cc2)c2cc3cn[nH]c3cc12 [Compound 146]
1.16 to 3 | N#CCCCc1c(C2CCOCC2)n(-c2ccc(F)cc2)c2cc3cn[nH]c3cc12 [Compound 148]
> 3 | CC(C)(CC#N)c1c(CCC(N)=O)c2cc3[nH]ncc3cc2n1-c1ccc(F)cc1 [Compound 191, 3-[6-(2-cyano-1,1-dimethyl-ethyl)-5-(4-fluorophenyl)-1H-pyrrolo[2,3-f]indazol-7-yl]propanamide]
1.16 to 3 | CC(C)c1c(-c2ccc(F)cc2)c2cc3cn[nH]c3cc2n1CCC(=O)O [Compound 205, 3-[5-(4-fluorophenyl)-6-isopropyl-1H-pyrrolo[3,2-f]indazol-7-yl]propanoic Acid]
> 3 | CC(C)c1c(CCC(=O)O)c2cc3cn[nH]c3cc2n1-c1ccc(F)cc1 [Compound 201, 3-[7-(4-fluorophenyl)-6-isopropyl-1H-pyrrolo[3,2-f]indazol-5-yl]propanoic Acid]
1.16 to 3 | Cc1cc(F)ccc1-n1c(C2CCOCC2)c(CC2(C(=O)O)CC2)c2cc3[nH]ncc3cc21 [Compound 124, 1-[[5-(4-fluoro-2-methyl-phenyl)-6-tetrahydropyran-4-yl-1H-pyrrolo[2,3-f]indazol-7-yl]methyl]cyclopropanecarboxylic Acid]
1.16 to 3 | O=S1(=O)CCC(Cc2c(C3CCOCC3)n(-c3ccc(F)cc3)c3cc4cn[nH]c4cc23)CC1 [Compound 147]
> 3 | NC(=O)[C@H]1C[C@@H](c2c(C3CCOCC3)n(-c3ccc(F)cc3)c3cc4cn[nH]c4cc32)C1 [Compound 160]
> 3 | CC(=O)N1CCC(Cc2c(C3CCOCC3)n(-c3ccc(F)cc3)c3cc4cn[nH]c4cc23)C1 (stereo in doubt) [Compound 213, 1-[(3S)-3-[[5-(4-fluorophenyl)-6-tetrahydropyran-4-yl-1H-pyrrolo[2,3-f]indazol-7-yl]methyl]pyrrolidin-1-yl]ethanone]
1.16 to 3 | C[C@]1(C(=O)O)C[C@H](c2c(C3CCOCC3)n(-c3ccc(F)cc3)c3cc4cn[nH]c4cc32)C1 (single isomer, unassigned) [Compound 115]
> 3 | COCC(C)(C)c1c(CCCNC(=O)OCc2ccccc2)c2cc3[nH]ncc3cc2n1-c1ccc(F)cc1 [Compound 181]
1.16 to 3 | O=S1(=O)CCCN1CCCc1c(C2CCOCC2)n(-c2ccc(F)cc2)c2cc3cn[nH]c3cc12 [Compound 150]
